{
  "source": "paper PMC5573408",
  "about": "“Pepcan-12 (RVD-hemopressin) is a CB2 receptor positive allosteric modulator constitutively secreted by adrenals and in liver upon tissue damage” (Scientific Reports, 2017)",
  "key": {"hCB2 receptor [1]": {"target": "T1, hCB2 receptor (Homo sapiens, UniProt P34972)", "T1 sequence (P34972 whole entry)": "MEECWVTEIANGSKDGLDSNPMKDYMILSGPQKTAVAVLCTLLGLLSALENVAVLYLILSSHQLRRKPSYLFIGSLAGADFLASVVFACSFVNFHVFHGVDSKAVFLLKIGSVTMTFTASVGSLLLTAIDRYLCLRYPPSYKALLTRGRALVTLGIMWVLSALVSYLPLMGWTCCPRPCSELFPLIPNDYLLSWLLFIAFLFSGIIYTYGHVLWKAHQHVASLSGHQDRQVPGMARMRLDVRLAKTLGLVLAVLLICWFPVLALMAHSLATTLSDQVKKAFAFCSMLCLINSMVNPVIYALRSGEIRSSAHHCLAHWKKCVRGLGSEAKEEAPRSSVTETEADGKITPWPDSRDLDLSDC", "experiment": "Equilibrium binding / displacement of fluorescent pepcan-F4 on CHO-K1-hCB2 cells", "design": "expressed in transfected cells; host or cells: CHO-K1", "conditions": "for Ki: 100 nM pepcan-F4", "method": "The equilibrium dissociation constant (Kd value) of the fluorescein-labeled pepcan-12 derivative pepcan-F4 was determined using CHO-K1-hCB2 cells as previously described. Equilibrium saturation binding was determined experimentally, and maximal specific binding (saturation) was reached already at 5 min at 37 °C. Different concentrations of pepcans and 100 nM pepcan-F4 were incubated together with […] suspended in 200 μL of binding buffer in silanized plastic tubes, under shaking for 60 min at 37 °C. After centrifugation at 4 °C and washing with ice-cold binding buffer, the cells were resuspended in ice-cold PBS and transferred into 96-well black plates, where the fluorescence intensities were measured using a Tecan Farcyte reader (485 nm excitation/535 nm emission). The specific binding was determined after washing and subtracting the nonspecific fluorescence calculated in parallel experiments carried out in non-transfected CHO cells."}, "hCB2 receptor [2]": {"target": "T1, hCB2 receptor", "experiment": "Dissociation kinetics of [3H]CP55,940 by isotopic dilution", "type": "binding", "design": "expressed in transfected cells", "conditions": "1 μM CP55,940 added to bound [3H]CP55,940 (0.5 nM), 300 nM pepcan-12", "method": "Dissociation kinetics experiments were performed as described before. […] […] […] After the incubation time, membrane suspensions were rapidly filtered through a 0.1% polyethyleneimine presoaked 96-well microplate bonded with GF/B glass fiber filters and washed as described above."}, "hCB2 receptor [3]": {"target": "T1, hCB2 receptor", "experiment": "Radioligand binding assays with [3H]CP55,940 and [3H]WIN55,212-2 on CHO-K1-hCB2 membranes", "design": "expressed in transfected cells; host or cells: CHO-K1", "conditions": "for Kb: pKB, ternary complex model; for enhancement of [3H]CP55,940 and [3H]WIN55,212-2 receptor binding: 100 nM and 1 μM", "method": "After the incubation time, membrane suspensions were rapidly filtered through a 0.1% polyethyleneimine presoaked 96-well microplate bonded with GF/B glass fiber filters (UniFilter-96 GF/B, PerkinElmer Life Sciences) under vacuum and washed 12 times with 150 μL of ice-cold binding buffer Filters were added with 40 μL of MicroScint20 scintillation liquid, and radioactivity was measured with the Trilux top counter (PerkinElmer Life Sciences). Data were collected from 3–10 independent experiments, each performed in triplicate, and the nonspecific binding was subtracted. The results are expressed as a percentage of vehicle-treated samples."}, "hCB2 receptor [4]": {"target": "T1, hCB2 receptor", "experiment": "[35S]GTPγS assay on hCB2 membranes", "type": "biochemical", "design": "expressed in transfected cells; host or cells: CHO-K1", "conditions": "for EC50 / [35S]GTPγS assay Max. Effect: 2-AG, mean (95% CI)", "method": "Assays were performed as previously described. Clean membranes expressing hCB2 were diluted in silanized plastic tubes with GTPγS binding buffer (50 mM Tris-HCl, 3 mM MgCl2, 0.2 mM EGTA and 100 mM NaCl at pH 7.4 supplemented with 0.5% fatty acid-free BSA) in the presence of 10 μM of GDP and 0.1 nM of [^35S]GTPγS. The mixture was kept on ice until the binding reaction was started by adding the vehicle or compounds. Non-specific binding was measured in presence of 10 μM GTPγS. The tubes were incubated at 30 °C for 90 min under shaking and then put on ice to stop the reaction. An aliquot (185 μL) of the reaction mixture was rapidly filtered through a 96-well microplate bonded with GF/B glass fibre filters previously pre-soaked with ice-cold washing buffer (50 mM of Tris-HCl pH 7.4 plus 0.1% fatty acid-free BSA). The filters were washed six times with 180 µL of washing buffer under vacuum. The radioactivity was measured after the addition of 45 µL of MicroScint20 scintillation cocktail. Specific binding was calculated by subtracting the residual radioactivity signal obtained in presence of an excess of GTPγS and the results were expressed as % of vehicle control."}, "hCB2 receptor [5]": {"target": "T1, hCB2 receptor", "experiment": "cAMP assay in CHO-K1-hCB2 cells (GloSensor)", "type": "cell-based", "design": "expressed in transfected cells; host or cells: CHO-K1", "conditions": "for EC50: 2-AG, mean (95% CI)", "method": "cAMP assays were performed in CHO-K1-hCB2 stably transfected with the pGloSensorTM 22-F plasmid (Promega) as previously described. Briefly, cells were seeded in 96-well plate and after attachment the medium was replaced by 40 µL of equilibration medium (GloSensor™ cAMP Reagent diluted in 5% v v^−1 of CO2-independent medium plus 10% FBS). The plates were incubated for 2 h at RT in the dark. […] Chemiluminescence was monitored continuously starting from immediately after the addition and for 30 min (keeping the plate at RT and in the dark). Basal levels of chemiluminescence (cells plus IBMX and vehicle without forskolin) were subtracted to the measured values. Results were normalized by subtracting the residual cAMP production and expressed as % of vehicle control."}},
  "note": "Values joined by “and” are separate entries in the source; they are usually repeats but may differ in a detail not shown here. Equal entries are not always repeated. No end group written: not given here.",
  "data": [
    {"compound": "HKLRVDPVNFKLLSH [Pepcan-15]", "values": [
      {"measurement": "Ki", "setting": "hCB2 receptor [1]", "value": "77.8 ± 8.2", "unit": "nM"}
    ]},
    {"compound": "RVDPVNFKLLSH [Pepcan-12]", "values": [
      {"measurement": "Half-life (fast)", "setting": "hCB2 receptor [2]", "value": "0.844 (0.703 to 1.057) min"},
      {"measurement": "Half-life (slow)", "setting": "hCB2 receptor [2]", "value": "49.90 (29.3 to 169.3) min"},
      {"measurement": "Kb", "setting": "hCB2 receptor [3]; [3H]CP55,940 bound", "value": 58.9, "unit": "nM"},
      {"measurement": "Kb", "setting": "hCB2 receptor [3]; [3H]WIN55,212-2 bound", "value": 53.7, "unit": "nM"},
      {"measurement": "Ki", "setting": "hCB2 receptor [1]", "value": "44.7 nM and ~50 nM"}
    ]},
    {"compound": "pepcan-F4: C-terminal fluorescence-labeled (fluorescein) pepcan-12 conjugate (RVDPVNFKLLSH; synthetic pepcan-12 (alpha-hemoglobin fragment)", "values": [
      {"measurement": "Kd", "setting": "hCB2 receptor [1]; specific saturation curve, read-out: apparent Kd for hCB2 receptors", "value": "123 ± 41.2", "unit": "nM"}
    ]},
    {"compound": "HAHKLRVDPVNFKLLSH [Pepcan-17]", "values": [
      {"measurement": "Ki", "setting": "hCB2 receptor [1]", "value": "183 ± 39.4", "unit": "nM"}
    ]},
    {"compound": "CCCCC/C=C\\C/C=C\\C/C=C\\C/C=C\\CCCC(=O)OC(CO)CO", "note": "[Pepcan 2-AG, 2-arachidonoyl glycerol]", "values": [
      {"measurement": "EC50", "setting": "hCB2 receptor [4]; pepcan-12 0 nM", "value": 95.8, "unit": "nM"},
      {"measurement": "[35S]GTPγS assay Max. Effect", "setting": "hCB2 receptor [4]; pepcan-12 0 nM", "value": "235 (220–251) % of crtl"},
      {"measurement": "EC50", "setting": "hCB2 receptor [4]; pepcan-12 10 nM", "value": 64.9, "unit": "nM"},
      {"measurement": "[35S]GTPγS assay Max. Effect", "setting": "hCB2 receptor [4]; pepcan-12 10 nM", "value": "238 (221–251) % of crtl"},
      {"measurement": "EC50", "setting": "hCB2 receptor [4]; pepcan-12 30 nM", "value": 40.9, "unit": "nM"},
      {"measurement": "[35S]GTPγS assay Max. Effect", "setting": "hCB2 receptor [4]; pepcan-12 30 nM", "value": "254 (237–272) % of crtl"},
      {"measurement": "EC50", "setting": "hCB2 receptor [4]; pepcan-12 100 nM", "value": 35.4, "unit": "nM"},
      {"measurement": "[35S]GTPγS assay Max. Effect", "setting": "hCB2 receptor [4]; pepcan-12 100 nM", "value": "291 (265–318) % of crtl"},
      {"measurement": "EC50", "setting": "hCB2 receptor [5]; pepcan-12 0 nM", "value": 92.1, "unit": "nM"},
      {"measurement": "EC50", "setting": "hCB2 receptor [5]; pepcan-12 10 nM", "value": 102, "unit": "nM"},
      {"measurement": "EC50", "setting": "hCB2 receptor [5]; pepcan-12 30 nM", "value": 25.1, "unit": "nM"},
      {"measurement": "EC50", "setting": "hCB2 receptor [5]; pepcan-12 100 nM", "value": 12.4, "unit": "nM"}
    ]},
    {"compound": "KLRVDPVNFKLLSH [Pepcan-14]", "values": [
      {"measurement": "effect on [35S]GTPγS binding in absence of agonist", "setting": "hCB2 receptor [4]; no orthosteric ligand", "value": "Lack of effects"},
      {"measurement": "effect on cAMP levels in absence of agonist", "setting": "hCB2 receptor [5]; no orthosteric ligand", "value": "Lack of effects"},
      {"measurement": "enhancement of [3H]CP55,940 and [3H]WIN55,212-2 receptor binding", "setting": "hCB2 receptor [3]", "value": "weaker yet still significant effects"}
    ]},
    {"compound": "SALSDLHAHKLRVDPVNFKLLSH [Pepcan-23, putative precursor of pepcan-12]", "values": [
      {"measurement": "enhancement of [3H]CP55,940 and [3H]WIN55,212-2 receptor binding", "setting": "hCB2 receptor [3]", "value": "did not exhibit any receptor interaction"}
    ]},
    {"compound": "SDLHAHKLRVDPVNFKLLSH [Pepcan-20]", "values": [
      {"measurement": "Ki", "setting": "hCB2 receptor [1]", "value": "> 10000", "unit": "nM"}
    ]}
  ]
}
